Experimental data from patent US10112881B2, “Skin lightening compounds” (WiSys Technology Foundation, Inc., priority 2014, dated 2018).
“Also recorded” adds a separate entry of the source.

Experiments:
zebrafish embryos [1] = details: embryos incubated 24 to 72 hpf
Description: Zebrafish embryos were incubated in compounds from 24 hpf (hours post fertilization) to 72 hpf.
(§1) The testing protocols for these compounds are as follows: • a. To test the inhibition of pigment formation, the zebrafish embryos were treated with the drugs from 24 to 72 hours post-fertilization (hpf). The embryos were monitored and imaged throughout their development to track the development of melanin pigment relative to a control group to which water was administered (Protocol 1). • b. […] The embryos were again monitored and imaged throughout their development relative to a control group to which water was administered (Protocol 2). • c. Additionally, to test the ability of the pigment to recover after being treated with our drugs, all embryos were treated at 24 hpf with the chemicals until the 68 hpf or 72 hpf time period, then washed with water to remove the treatment. The embryos were again monitored and imaged throughout their development relative to a control group to which water was administered (Protocol 3). Comparison of Skin-Lightening Compounds
The black pigment (or melanin) is very easy to observe in zebrafish. In brief, adult zebrafish are taken to breed embryos. Morphologically normal embryos of 24 hours post fertilization (hpf) stage will be selected for incubation in the drugs from 24 to 72 hours. During the incubation, the embryos are monitored and imaged (see FIG. 1) to track the development of melanin. […] To broaden the comparison with other skin-lightening products, this project can also test other compounds, kojic acid, gallic acid, (2-Morpholinobutyl)-4-thiophenol/MoTP and Haginin/phenoxidiol. […] In the meantime, the whole organism context also allows us to examine the toxicological profile, if any, of these compounds. The same protocol is also used for the experiments using the melanoma forming zebrafish.

[2] = system: purified tyrosinase from mushroom; test: In vitro tyrosinase assay (L-tyrosine to DOPAchrome, absorbance 490 nm); type: biochemical; details: absorbance at 490 nm at 20', 60' and 120' of reaction
From the text: The assay is set up by mixing purified tyrosinase from mushroom with L-tyrosine with or without test chemical. Active tyrosinase will turn L-tyrosine into DOPAchrome which is orange color. The absorbance at 490 nm which reflects the amount of DOPAchrome and thus the tyrosinase activity was taken at 20′, 60′ and 120′ of reaction.
Most of the current skin-lightening compounds reduce pigment by inhibiting the melanin synthesis enzyme called tyrosinase (FIG. 5). […] The assay is usually done by mixing purified tyrosinase from mushroom with L-tyrosine, which is the substrate of tyrosinase, and with or without test chemical. Reaction with active tyrosinase will quickly turn L-tyrosine into a color product called dopachrome which is an intermediate product in the melanin synthesis pathway. The amount of dopachrome can be measured by a spectrophotometer at A490 nm visible light.

zebrafish embryos [3] = test: Reduction of existing pigment in zebrafish embryos (Protocol 2); type: in vivo; details: embryos incubated from 48 hpf to 68 hpf
Description: Embryos were incubated in compounds from 48 hpf when some pigments already formed to 68 hpf.
as §1
Thus, we compared the compound effect on existing pigment using older embryos at 48 hpf. The embryos were again monitored and imaged throughout their development according to Protocol 2.

zebrafish embryos [4] = test: Pigment recovery after chemical withdrawal (Protocol 3); type: in vivo; details: treated 24-72 hpf, washed, imaged 24 hours after wash
Description: FIG. 4 are photographs of the pigment recovery after chemical withdrawal. Zebrafish embryos were treated with skin lightening compounds from 24-72 hpf followed by several washes to remove the compounds then incubated in […]. Twenty four hours after wash, the embryos were imaged.
Comparison of Skin-Lightening Compounds
It has been reported that melanin usually reappears after the withdrawal of skin lightening products. We studied this question by treating fish embryos from 24-72 hpf, according to Protocol 3, to create strong pigment reduction then wash off the compounds and track the pigment recovery. […] A drug with the ability to permanently remove or inhibit pigment might pose a concern of causing vitiligo.

[5] = system: dct-expressing cells (melanocyte precursors); test: In situ hybridization for dct-expressing cells; type: in vivo, zebrafish; details: cell counts
From the text: The cDNA of these genes was cloned and used to generate anti-sense RNA probes.
(§2) We also carried out qPCR to measure the dct mRNA expression.

zebrafish embryos [6] = test: Apoptosis labeling in compound-treated embryos; type: in vivo; details: fluorescence/enzymatic labeling
From the text: FIGS. 7A-7B are photographs and an associated graph illustrating the cell death by skin lightening compounds. Embryos treated with skin lightening compounds were fixed and processed for enzymatic labeling for apoptosis.
Although it is rare, one compound MoTP was reported to cause cell death specifically in melanocyte. We tested whether other skin lightening compounds can also cause melanocyte cell death. Using a fluorescence labeling assay, we were able to detect the apoptotic cells. Although we were not able to specifically identify apoptotic melanocyte due to technical difficulties, we were able to evaluate the overall cell death in the compound treated embryos.

dct mRNA = test: Quantitative PCR of dct mRNA in treated embryos; type: in vivo, zebrafish; details: qPCR
From the text: as §2

[7] = system: Mouse melanoma cell line B16-F10; test: Mouse melanoma cell proliferation (cell count after 48 hours); type: cell-based
From the text: (§3) Mouse melanoma cell line B16-F10 is a commonly used mammalian cells for melanogenesis and melanocyte studies. […] MoTP. […] The two graphs on top are cell number per 0.5 cubic mm. The Y axis in the lower two graphs is absorbance of 490 nm visible light by melanin. Higher absorbance means more melanin.
(§4) In this experiment, we first seeded approximately the same number of cells in each well of the 24-well plate supplied with fresh complete growth medium with different skin lightening compound. After 48 hours of incubation, we counted the cell numbers to evaluate the cell proliferation and lysed the cells from additional identically set-up wells and measured the total amount of melanin in treated melanoma.

[8] = system: Mouse melanoma cell line B16-F10; test: Melanin content of mouse melanoma cells (absorbance 490 nm); type: cell-based; details: 48 hours
From the text: as §3, §4

## O=C(O)c1cc(O)c(O)c(O)c1 [gallic acid]
Zebrafish embryos [1]
  inhibition of pigment formation: different degrees of pigment inhibition
  overall efficacy of the skin-lightening effects (rank order): PTU=phenoxidiol=A11=MoTP>Arbutin>Niacinamide>Tretinoin>kojic acid>gallic acid
[2]
  tyrosinase inhibition: enhancement of tyrosinase activity

## Oc1ccc(C2=Cc3ccc(O)cc3OC2)cc1 [phenoxidiol, phenoxidiol/haginin]
Zebrafish embryos [3]
  reduction of existing pigment: strong in reducing existing pigment
Zebrafish embryos [3]; listed as Phenoxidiol
  reduction of existing pigment: strong reduction of existing pigment
Zebrafish embryos [4]
  pigment recovery after chemical withdrawal: not so
[5]
  number of dct+ cells: fewer dct-positive cells; also recorded: significant lower number of dct+ cells
Zebrafish embryos [1]
  inhibition of pigment formation: strong pigmentation inhibition
  overall efficacy of the skin-lightening effects (rank order): PTU=phenoxidiol=A11=MoTP>Arbutin>Niacinamide>Tretinoin>kojic acid>gallic acid
Zebrafish embryos [6]
  apoptosis / overall cell death in treated embryos: large increase of apoptosis; also recorded: significant apoptosis
Dct mRNA
  dct mRNA expression: significantly lower expression of dct expression; also recorded: reduction of dct expression

## CC1=C(/C=C/C(C)=C/C=C/C(C)=C/C(=O)O)C(C)(C)CCC1 [tretinoin, Tretinoin]
[7]; concentration not given
  cell proliferation: didn't seem to have any effect on melanocyte proliferation
Zebrafish embryos [3]
  reduction of existing pigment: minimal or no pigment reduction
Zebrafish embryos [1]
  inhibition of pigment formation: different degrees of pigment inhibition
  overall efficacy of the skin-lightening effects (rank order): PTU=phenoxidiol=A11=MoTP>Arbutin>Niacinamide>Tretinoin>kojic acid>gallic acid
[8]; concentration not given
  melanin synthesis / melanin amount: significant reduction of melanin
Zebrafish embryos [6]
  apoptosis / overall cell death in treated embryos: significant apoptosis

## N#CC(=C(N)Sc1ccccc1N)C(C#N)=C(N)Sc1ccccc1N [MEK-I]
[7]; concentration not given
  cell proliferation: didn't seem to have any effect on melanocyte proliferation
[5]
  number of dct+ cells: no effect on the number of dct expressing cells and not
[8]; concentration not given
  melanin synthesis / melanin amount: not
Dct mRNA
  dct mRNA expression: no change in dct expression

## COc1cc(O)cc(/C=C/Oc2ccccc2C)c1 [A11, 2-Methylphenyl-E-(3-hydroxy-5-methoxy)-styryl ether]
[7]; 40 uM
  cell proliferation: slightly inhibited the melanoma cell proliferation; also recorded: significantly inhibit the melanocyte proliferation
Zebrafish embryos [3]
  reduction of existing pigment: strong and quick pigment reduction; also recorded: strong in reducing existing pigment; also recorded: strong reduction of existing pigment
[5]
  number of dct+ cells: fewer dct-positive cells; also recorded: significant lower number of dct+ cells
Zebrafish embryos [1]
  inhibition of pigment formation: strong pigmentation inhibition
  overall efficacy of the skin-lightening effects (rank order): PTU=phenoxidiol=A11=MoTP>Arbutin>Niacinamide>Tretinoin>kojic acid>gallic acid
[8]; 10 uM
  melanin synthesis / melanin amount: no melanin reduction
[8]; 40 uM
  melanin synthesis / melanin amount: slight reduction; also recorded: reduced
Zebrafish embryos [6]
  apoptosis / overall cell death in treated embryos: no significant cell death
[2]
  tyrosinase inhibition: does not inhibit tyrosinase; also recorded: no inhibition at all
Dct mRNA
  dct mRNA expression: significantly lower expression of dct expression; also recorded: reduction of dct expression

## (2-Morpholinobutyl)-4-thiophenol [MoTP]
[7]; concentration not given
  cell proliferation: killed all the melanoma cells; also recorded: significantly inhibit the melanocyte proliferation
Zebrafish embryos [3]
  reduction of existing pigment: moderately reduce existing pigment; also recorded: strong reduction of existing pigment
Zebrafish embryos [4]
  pigment recovery after chemical withdrawal: limited recovery
Zebrafish embryos [1]
  inhibition of pigment formation: strong pigmentation inhibition
  overall efficacy of the skin-lightening effects (rank order): PTU=phenoxidiol=A11=MoTP>Arbutin>Niacinamide>Tretinoin>kojic acid>gallic acid
Zebrafish embryos [6]
  apoptosis / overall cell death in treated embryos: slightly higher level of apoptosis; also recorded: slight increase of apoptosis
[2]
  tyrosinase inhibition: enhancement of tyrosinase activity

## O=c1cc(CO)occ1O [kojic acid]
[7]; concentration not given
  cell proliferation: significantly inhibit the melanocyte proliferation
Zebrafish embryos [3]
  reduction of existing pigment: minimal or no pigment reduction
Zebrafish embryos [1]
  inhibition of pigment formation: different degrees of pigment inhibition
  overall efficacy of the skin-lightening effects (rank order): PTU=phenoxidiol=A11=MoTP>Arbutin>Niacinamide>Tretinoin>kojic acid>gallic acid
[8]; concentration not given
  melanin synthesis / melanin amount: significant reduction of melanin
[2]
  tyrosinase inhibition: strong inhibition

## NC(=S)Nc1ccccc1 [PTU, phenylthiourea]
[7]; concentration not given
  cell proliferation: didn't seem to have any effect on melanocyte proliferation
Zebrafish embryos [3]
  reduction of existing pigment: moderately reduce existing pigment
Zebrafish embryos [4]
  pigment recovery after chemical withdrawal: not so
[5]
  number of dct+ cells: no effect on the number of dct expressing cells
Zebrafish embryos [1]
  inhibition of pigment formation: strong pigmentation inhibition
  overall efficacy of the skin-lightening effects (rank order): PTU=phenoxidiol=A11=MoTP>Arbutin>Niacinamide>Tretinoin>kojic acid>gallic acid
[8]; concentration not given
  melanin synthesis / melanin amount: significant reduction of melanin
[2]
  tyrosinase inhibition: strong inhibition
Dct mRNA
  dct mRNA expression: slightly increase of dct expression

## NC(=O)c1cccnc1 [niacinamide, Niacinamide]
Zebrafish embryos [1]
  inhibition of pigment formation: different degrees of pigment inhibition
  overall efficacy of the skin-lightening effects (rank order): PTU=phenoxidiol=A11=MoTP>Arbutin>Niacinamide>Tretinoin>kojic acid>gallic acid
[8]; concentration not given
  melanin synthesis / melanin amount: not
Zebrafish embryos [6]
  apoptosis / overall cell death in treated embryos: significant apoptosis
Zebrafish embryos [6]; listed as Niacinamide
  apoptosis / overall cell death in treated embryos: large increase of apoptosis

## OC[C@H]1O[C@@H](Oc2ccc(O)cc2)[C@H](O)[C@@H](O)[C@@H]1O [arbutin, Arbutin]
[7]; 100 mM
  cell proliferation: significantly inhibit the melanocyte proliferation
Zebrafish embryos [3]
  reduction of existing pigment: moderately reduce existing pigment
Zebrafish embryos [1]
  inhibition of pigment formation: different degrees of pigment inhibition
  overall efficacy of the skin-lightening effects (rank order): PTU=phenoxidiol=A11=MoTP>Arbutin>Niacinamide>Tretinoin>kojic acid>gallic acid
[8]; concentration not given
  melanin synthesis / melanin amount: significant reduction of melanin
[2]
  tyrosinase inhibition: strong inhibition
Dct mRNA
  dct mRNA expression: slightly increase of dct expression
